CC50 and EC50 data for 20 compounds are collected here from patent US20220348592A1, “FUSED HETEROCYCLIC DERIVATIVES” (Janssen Sciences Ireland Unlimited Company, priority 2019, published 2022).

The nature of data set [1]: Cytotoxicity in HepG2.117 cells, ATPlite Luminescence Assay. Format: cell-based, human. The note with it: human, incubated for 3 days, mean value, read-out: TOX-HepG2.117 CC50 (μM, mean value). The method, then:
Cytotoxicity of the compounds was tested using HepG2 or HepG2.117 cells, incubated for 3 days in the presence of compounds. The viability of the cells was assessed using the PERKIN ELMER ATPlite Luminescence Assay System.”
In general terms: In ATP-based viability assays light output follows the ATP content of the culture.

Data set [2] deals with HBV. The experiment in a line: Anti-HBV activity: intracellular HBV DNA by real-time PCR in HepG2.117 cell line. Type of data set: cell-based, Hepatitis B virus. The conditions noted are these: Hepatitis B virus, 72 h; HepG2.117 cells, 3 days of treatment, intracellular HBV DNA by real-time PCR, mean value; read-out: HBV-AVE-HepG2.117 EC50 (μM, mean value). The essentials: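 HepG2.117 cells, a Tet-off inducible HBV-producing line, induced to replicate HBV and then treated with serially diluted compound. After 3 days, intracellular HBV DNA quantified by real-time PCR with HBV-specific primers and probe.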
(In general: In qPCR the cycle at which signal appears reflects the starting amount.)

Usually CC50 stands for the concentration that lowers cell viability or growth by half. As a reminder, the EC50 is the concentration that produces a half-maximal response.

Consider `Cc1nc(C(C)N2CCn3nc4c(c3C2=O)CN(C(=O)c2ccc(Cl)c(Cl)c2)[C@H](C)C4)no1` (stereo partly shown) [Example C225], for which the cytotoxic concentration (CC50) at 3 days in data set [1] was greater than 50 µM. In addition, the concentration giving a half-maximal response (EC50) in data set [2] was 0.263 µM.
Consider `COc1ccccc1C(C)N1CCn2nc3c(c2C1=O)CN(C(=O)c1ccc(Cl)c(Cl)c1)[C@H](C)C3` (stereo partly shown) [Example C227], for which the CC50 at 3 days in data set [1] was determined as 37.3 µM. The half-maximal effective concentration (EC50) in data set [2] was 0.129 µM.
Taken in the same sequence, the figures for `C[C@@H]1Cc2nn3c(c2CN1C(=O)c1ccc(Cl)c(Cl)c1)C(=O)N(Cc1cc(F)ccc1F)CC3` [Example C228] were 37.5 µM and 0.062 µM.
For `Cc1ocnc1CN1CCn2nc3c(c2C1=O)CN(C(=O)c1ccc(Cl)c(Cl)c1)[C@H](C)C3` [Example C229], in that order: greater than 25 µM and 0.438 µM.
Taken in the same sequence, the figures for `C[C@@H]1Cc2nn3c(c2CN1C(=O)c1ccc(Cl)c(Cl)c1)C(=O)N(Cc1cc(F)cc(C#N)c1)CC3` [Example C230] were greater than 12.5 µM and 0.045 µM.
For `C[C@@H]1Cc2nn3c(c2CN1C(=O)c1ccc(Cl)c(Cl)c1)C(=O)N(Cc1cccc(C#N)c1F)CC3` [Example C231], the CC50 at 3 days in data set [1] was greater than 50 µM. In addition, in data set [2], the EC50 was found to be 0.09 µM.
Taken in the same sequence, the figures for `Cc1ccc(CN2CCn3nc4c(c3C2=O)CN(C(=O)c2ccc(Cl)c(Cl)c2)[C@H](C)C4)c(C)n1` [Example C232] were 24.4 µM and 0.066 µM.
Turning to `C[C@@H]1Cc2nn3c(c2CN1C(=O)c1ccc(Cl)c(Cl)c1)C(=O)N(Cc1cccnc1C(F)(F)F)CC3` [Example C233], the CC50 at 3 days in data set [1] was determined as 29.8 µM. Further, the EC50 in data set [2] stood at 0.423 µM.
For `Cc1nc(C)c(CN2CCn3nc4c(c3C2=O)CN(C(=O)c2ccc(Cl)c(Cl)c2)[C@H](C)C4)s1` [Example C234], in that order: greater than 50 µM and 0.036 µM.
Taken in the same sequence, the figures for `C[C@@H]1Cc2nn3c(c2CN1C(=O)c1ccc(Cl)c(Cl)c1)C(=O)N(Cc1nc(C2CC2)nn1C)CC3` [Example C235] were greater than 50 µM and 1.93 µM.
Taken in the same sequence, the figures for `Cc1conc1CN1CCn2nc3c(c2C1=O)CN(C(=O)c1ccc(Cl)c(Cl)c1)[C@H](C)C3` [Example C236] were greater than 51 µM and 0.325 µM.
For the compound `C[C@@H]1Cc2nn3c(c2CN1C(=O)c1ccc(Cl)c(Cl)c1)C(=O)N(Cc1ccc(C(F)(F)F)cn1)CC3` [Example C237], in data set [1], the CC50 at 3 days came out at 18.8 µM. In addition, the concentration giving a half-maximal response (EC50) in data set [2] amounted to 0.107 µM.
For `C[C@@H]1Cc2nn3c(c2CN1C(=O)c1ccc(Cl)c(Cl)c1)C(=O)N(Cc1ccc(C#N)c(F)c1)CC3` [Example C238], in that order: 39.9 µM and 0.029 µM.
Taken in the same sequence, the figures for `C[C@@H]1Cc2nn3c(c2CN1C(=O)c1ccc(Cl)c(Cl)c1)C(=O)N(Cc1cn(C2CC2)nn1)CC3` [Example C239] were greater than 50 µM and 0.154 µM.
Taken in the same sequence, the figures for `C[C@@H]1Cc2nn3c(c2CN1C(=O)c1ccc(Cl)c(Cl)c1)C(=O)N(Cc1cnc(Cl)c(F)c1)CC3` [Example C240] were 35.2 µM and 0.017 µM.
As to `Cc1nocc1CN1CCn2nc3c(c2C1=O)CN(C(=O)c1ccc(Cl)c(Cl)c1)[C@H](C)C3` [Example C241], the 50% cytotoxic concentration (CC50) at 3 days in data set [1] is greater than 50 µM. Also, in data set [2], the 50% effective concentration (EC50) was 0.19 µM.
Turning to `C[C@@H]1Cc2nn3c(c2CN1C(=O)c1ccc(Cl)c(Cl)c1)C(=O)N(Cc1nccn1C)CC3` [Example C242], the cytotoxic concentration (CC50) at 3 days in data set [1] is greater than 50 µM. In addition, in data set [2], the concentration for a half-maximal effect (EC50) was determined as 0.589 µM.
With `CCOc1cc(CN2CCn3nc4c(c3C2=O)CN(C(=O)c2ccc(Cl)c(Cl)c2)[C@H](C)C4)nc2nc(C(F)(F)F)nn12` [Example C243], in data set [1], the cytotoxic concentration (CC50) at 3 days is greater than 50 µM. Further, the EC50 in data set [2] was greater than 2.5 µM.
For `CC(c1ccccc1F)N1CCn2nc3c(c2C1=O)CN(C(=O)c1ccc(Cl)c(Cl)c1)[C@H](C)C3` (stereo partly shown) [Example C244], in that order: 24.5 µM and 0.048 µM.
For `Cc1nnc(C(C)N2CCn3nc4c(c3C2=O)CN(C(=O)c2ccc(Cl)c(Cl)c2)[C@H](C)C4)s1` (stereo partly shown) [Example C245], in that order: greater than 50 µM and 0.072 µM.
